Reference: patent US9365572B2, “PI3K and/or mTOR inhibitor” (XUANZHU PHARMA CO., LTD., priority 2012, dated 2016)

Columns and labels:
AURA = AURA (Homo sapiens (Human), UniProt O14965); assay: Kinase selectivity, Mobility shift assay; format: biochemical
Procedure: (§1) Object: In this assay, the inhibitory activity of the test substance on the kinases listed in Table 3 was determined, and therefore the selectivity of the present compound was determined.
(§2) Except for the BRAF V600E kinase in Table 3, the Mobility shift assay was used for other kinases.
(§3) 1. Preparation of Agents:
(§4) • 1.1 1-fold kinase buffer without MnCl2: 50 mM HEPES, pH 7.5, 0.0015% Brij-35, 10 mM MgCl2, 2 mM DTT. • 1.2 1-fold kinase buffer with MnCl2: 50 mM HEPES, pH 7.5, 0.0015% Brij-35, 10 mM MgCl2, 10 mM MnCl2, 2 mM DTT. • 1.3 Termination solution: 100 mM HEPES, pH 7.5, 0.0015% Brij-35, 0.2% Coating Reagent#3, 50 mM EDTA. • 1.4 2.5-fold kinase solution: The kinase was added to the 1-fold kinase buffer to form a 2.5-fold kinase solution. • 1.5 2.5-fold substrate solution: FAM fluorescence-labelled polypeptide and ATP were added to the 1-fold kinase buffer to form a 2.5-fold substrate solution. 2. Preparation of 5-fold compound
(§5) The final test concentration of the compound was 10 μM at maximum. Firstly, a 50-fold concentration (i.e. 500 μM) was prepared with 100% DMSO. The compound was diluted with 100% DMSO by 5 folds at 5 concentrations (successively 500 μM, 100 μM, 20 μM, 4 μM, and 0.8 μM). After diluting with 1-fold kinase buffer by 10 folds, 5 μl of the samples were transferred to a 384-well reaction plate. Two negative control wells and two positive control wells were set at each line respectively. Replication was made in a 96-well plate in five concentrations of 5-fold compound. 10% DMSO was added to the positive control well, and 5 μl of EDTA (250 mM) was added to the negative control well.
(§6) • 3.1 To the 384-well reaction plate was added 5-fold compound dissolved in 10% DMSO at 5 μl/well. • 3.2 To the 384-well reaction plate was added 2.5-fold kinase solution at 10 μl/well. The plate was incubated at room temperature for 10 mins. • 3.3 To the 384-well reaction plate was added 2.5-fold substrate solution at 10 μl/well. The plate was incubated at 28° C. for a certain period. • 3.4 25 μl termination solution was added to terminate the reaction. The conversion was read from Caliper. 4. Inhibition rate calculation Inhibition rate (%)=(maximum−sample value)/(maximum−minimum)×100 • wherein: • maximum refers to the conversion at the DMSO control well, • minimum refers to the conversion at the control well without kinase. Lanthascreen Analysis Method for the BRAF V600E Kinase 1. Preparation of Agents: • 1.1 2-fold kinase solution: using 1-fold kinase buffer to prepare 2-fold kinase solution, with a final concentration of 0.35 nM of BRAFV600E; • 1.2 4-fold substrate solution: using 1-fold kinase buffer to prepare 4-fold substrate solution, with a final substrate solution concentration of 0.2 μM of Fluorescein-MAP2K1 and 1.5 μM of ATP. 2. Preparation of 4-fold compound • The final test concentration of the compound was 10 μM at maximum. Firstly, a 100-fold concentration (i.e. 1000 μM) was prepared with 100% DMSO. The compound was diluted with 100% DMSO by 5 folds at 5 concentrations. The compound series was identical to that in the Mobility Shift Assay. After diluting with 1-fold kinase buffer by 25 folds, the resulting samples were shaked and mixed evenly on a plate-shaker for 10 mins. 3. Procedure • 3.1 To the 384-well reaction plate was added 4-fold compound dissolved in 10% DMSO at 2.5 µl/well; • 3.2 To the 384-well reaction plate was added 2-fold kinase solution at 5 μl/well, and to the negative control wells were added 1-fold kinase buffer. The samples were shaked, mixed evenly, and kept standing at room temperature. • 3.3 To the 384-well reaction plate was added 4-fold substrate solution at 2.5 μl/well. The plate was reacted, shaked, mixed evenly and incubated at room temperature for one hour; • 3.4 Reaction result detection: 2-fold detection solution was prepared, with a final concentration of 2 nM of Antibody and 10 mM of EDTA. 10 μl of the detection solution was transferred to the 384-well plate to terminate the reaction. […]

FES = FES (Homo sapiens (Human), UniProt P07332); assay: Kinase selectivity, Mobility shift assay; format: biochemical
Procedure: as §1, §2, §3, §4, §5, §6

JAK2 = JAK2 (Homo sapiens (Human), UniProt O60674); assay: Kinase selectivity, Mobility shift assay; format: biochemical
Procedure: as §1, §2, §3, §4, §5, §6

MSK1 = MSK1 (Homo sapiens (Human), UniProt O75582); assay: Kinase selectivity, Mobility shift assay; format: biochemical
Procedure: as §1, §2, §3, §4, §5, §6

PDK1 = PDK1 (Homo sapiens (Human), UniProt O15530); assay: Kinase selectivity, Mobility shift assay; format: biochemical
Procedure: as §1, §2, §3, §4, §5, §6

Adrenergic α2A = Adrenergic α2A (Homo sapiens (Human), UniProt P08913); assay: Radioligand binding assay No. 203620; details: test substance 10 μM, read-out: Inhibitory rate (%), Adrenergic α2A
Endothelin ETA = Endothelin ETA (Homo sapiens (Human), UniProt P25101); assay: Radioligand binding assay No. 224010; details: test substance 10 μM, read-out: Inhibitory rate (%), Endothelin ETA
Opiate δ1 (OP1, DOP) = Opiate δ1 (OP1, DOP) (Homo sapiens (Human), UniProt P41143); assay: Radioligand binding assay No. 260130; details: test substance 10 μM, read-out: Inhibitory rate (%), Opiate δ1 (OP1, DOP)
Sequence of Opiate δ1 (OP1, DOP) (P41143 whole entry): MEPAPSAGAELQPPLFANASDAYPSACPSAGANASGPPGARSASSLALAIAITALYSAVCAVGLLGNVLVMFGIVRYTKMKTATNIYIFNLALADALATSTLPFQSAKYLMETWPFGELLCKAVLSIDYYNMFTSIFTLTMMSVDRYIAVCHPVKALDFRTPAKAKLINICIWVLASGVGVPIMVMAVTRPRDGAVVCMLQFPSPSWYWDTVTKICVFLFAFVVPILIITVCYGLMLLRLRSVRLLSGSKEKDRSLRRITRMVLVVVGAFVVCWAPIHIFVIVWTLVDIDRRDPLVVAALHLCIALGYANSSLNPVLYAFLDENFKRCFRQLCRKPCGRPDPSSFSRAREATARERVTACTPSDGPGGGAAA

Sequence of JAK2 (O60674 whole entry, species assumed): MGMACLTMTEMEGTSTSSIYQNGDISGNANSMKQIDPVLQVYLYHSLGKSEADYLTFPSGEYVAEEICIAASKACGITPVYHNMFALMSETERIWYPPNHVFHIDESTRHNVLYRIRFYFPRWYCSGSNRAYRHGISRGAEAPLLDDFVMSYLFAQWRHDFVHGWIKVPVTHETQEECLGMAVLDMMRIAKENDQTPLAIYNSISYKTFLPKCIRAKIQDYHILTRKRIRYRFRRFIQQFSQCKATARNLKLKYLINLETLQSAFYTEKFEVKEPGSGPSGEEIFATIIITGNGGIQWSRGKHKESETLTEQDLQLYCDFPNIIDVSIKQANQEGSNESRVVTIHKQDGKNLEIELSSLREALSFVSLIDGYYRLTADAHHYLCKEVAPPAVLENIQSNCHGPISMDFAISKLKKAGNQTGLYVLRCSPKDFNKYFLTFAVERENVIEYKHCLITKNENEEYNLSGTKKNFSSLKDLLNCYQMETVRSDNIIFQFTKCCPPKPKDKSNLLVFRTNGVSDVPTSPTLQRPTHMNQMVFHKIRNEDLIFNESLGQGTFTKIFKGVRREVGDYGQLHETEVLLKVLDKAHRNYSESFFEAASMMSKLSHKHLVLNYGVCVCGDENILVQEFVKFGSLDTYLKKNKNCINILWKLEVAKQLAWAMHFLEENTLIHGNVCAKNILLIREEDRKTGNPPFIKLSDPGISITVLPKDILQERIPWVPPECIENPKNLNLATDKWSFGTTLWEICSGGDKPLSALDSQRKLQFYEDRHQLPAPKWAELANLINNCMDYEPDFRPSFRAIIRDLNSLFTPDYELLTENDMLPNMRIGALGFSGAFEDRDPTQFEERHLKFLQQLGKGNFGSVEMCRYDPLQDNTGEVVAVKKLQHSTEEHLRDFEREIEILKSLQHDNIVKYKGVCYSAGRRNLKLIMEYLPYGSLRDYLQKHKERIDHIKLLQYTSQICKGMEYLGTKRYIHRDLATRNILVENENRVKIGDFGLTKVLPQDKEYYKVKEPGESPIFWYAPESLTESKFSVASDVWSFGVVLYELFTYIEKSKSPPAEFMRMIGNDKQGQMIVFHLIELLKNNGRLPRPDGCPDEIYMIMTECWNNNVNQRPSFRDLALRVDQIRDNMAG
Sequence of FES (P07332 whole entry, species assumed): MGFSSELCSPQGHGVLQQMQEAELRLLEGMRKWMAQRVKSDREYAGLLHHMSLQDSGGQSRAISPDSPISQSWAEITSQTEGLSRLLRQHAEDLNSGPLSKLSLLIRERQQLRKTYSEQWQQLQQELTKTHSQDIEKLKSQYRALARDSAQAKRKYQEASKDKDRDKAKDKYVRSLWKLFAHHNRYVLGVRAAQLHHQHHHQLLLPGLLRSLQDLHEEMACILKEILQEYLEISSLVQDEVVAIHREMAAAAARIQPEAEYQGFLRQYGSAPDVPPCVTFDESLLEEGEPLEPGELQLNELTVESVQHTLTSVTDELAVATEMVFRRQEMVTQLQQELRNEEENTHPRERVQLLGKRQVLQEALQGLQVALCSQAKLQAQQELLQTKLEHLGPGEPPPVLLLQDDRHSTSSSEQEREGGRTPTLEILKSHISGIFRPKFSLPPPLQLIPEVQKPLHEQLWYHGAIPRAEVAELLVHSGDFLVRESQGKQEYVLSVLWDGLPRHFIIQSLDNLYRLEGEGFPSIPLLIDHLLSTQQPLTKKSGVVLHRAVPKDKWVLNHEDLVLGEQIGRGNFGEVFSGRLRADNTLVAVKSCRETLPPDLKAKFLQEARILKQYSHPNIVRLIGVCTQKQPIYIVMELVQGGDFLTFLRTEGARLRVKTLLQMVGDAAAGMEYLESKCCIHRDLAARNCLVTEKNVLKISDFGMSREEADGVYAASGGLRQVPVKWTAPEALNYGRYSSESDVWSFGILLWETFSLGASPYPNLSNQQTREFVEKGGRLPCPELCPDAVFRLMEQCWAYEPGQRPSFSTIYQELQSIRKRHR
Sequence of PDK1 (O15530 whole entry): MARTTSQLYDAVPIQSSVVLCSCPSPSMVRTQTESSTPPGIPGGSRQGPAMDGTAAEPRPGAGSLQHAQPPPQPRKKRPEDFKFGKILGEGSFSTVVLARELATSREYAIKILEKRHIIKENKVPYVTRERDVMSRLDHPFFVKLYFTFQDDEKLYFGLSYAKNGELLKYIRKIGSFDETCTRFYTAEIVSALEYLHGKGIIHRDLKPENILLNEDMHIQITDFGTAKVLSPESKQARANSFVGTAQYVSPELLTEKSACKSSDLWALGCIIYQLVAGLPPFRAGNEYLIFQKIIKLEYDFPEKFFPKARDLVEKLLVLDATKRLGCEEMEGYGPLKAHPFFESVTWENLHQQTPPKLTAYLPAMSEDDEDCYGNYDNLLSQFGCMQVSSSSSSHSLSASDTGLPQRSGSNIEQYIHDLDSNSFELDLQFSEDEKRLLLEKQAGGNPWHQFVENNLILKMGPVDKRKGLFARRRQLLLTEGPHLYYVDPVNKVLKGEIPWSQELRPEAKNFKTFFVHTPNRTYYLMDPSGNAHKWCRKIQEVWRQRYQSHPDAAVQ
Sequence of Adrenergic α2A (P08913 whole entry): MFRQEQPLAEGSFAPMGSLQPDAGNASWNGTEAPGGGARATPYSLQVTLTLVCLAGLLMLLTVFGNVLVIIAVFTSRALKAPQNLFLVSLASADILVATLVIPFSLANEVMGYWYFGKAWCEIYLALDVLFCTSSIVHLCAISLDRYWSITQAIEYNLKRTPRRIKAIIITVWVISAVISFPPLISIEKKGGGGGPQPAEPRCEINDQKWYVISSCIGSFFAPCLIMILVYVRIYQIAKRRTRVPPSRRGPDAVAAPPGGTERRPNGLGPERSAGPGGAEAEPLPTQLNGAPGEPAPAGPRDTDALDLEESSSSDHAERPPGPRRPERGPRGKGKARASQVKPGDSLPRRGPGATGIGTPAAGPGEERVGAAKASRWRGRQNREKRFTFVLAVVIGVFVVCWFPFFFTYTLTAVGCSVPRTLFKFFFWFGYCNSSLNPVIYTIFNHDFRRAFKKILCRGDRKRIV
Sequence of AURA (O14965 whole entry, species assumed): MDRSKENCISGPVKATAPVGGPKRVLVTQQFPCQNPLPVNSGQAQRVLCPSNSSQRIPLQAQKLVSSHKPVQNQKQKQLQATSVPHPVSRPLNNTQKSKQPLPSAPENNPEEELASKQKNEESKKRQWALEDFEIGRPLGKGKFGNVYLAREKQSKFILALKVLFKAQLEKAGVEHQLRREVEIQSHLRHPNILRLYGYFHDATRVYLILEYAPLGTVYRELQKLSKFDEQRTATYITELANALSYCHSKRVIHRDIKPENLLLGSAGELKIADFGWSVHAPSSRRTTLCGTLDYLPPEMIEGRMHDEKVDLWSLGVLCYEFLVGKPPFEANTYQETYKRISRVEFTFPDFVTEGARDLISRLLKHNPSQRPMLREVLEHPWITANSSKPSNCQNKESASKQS
Sequence of MSK1 (O75582 whole entry, species assumed): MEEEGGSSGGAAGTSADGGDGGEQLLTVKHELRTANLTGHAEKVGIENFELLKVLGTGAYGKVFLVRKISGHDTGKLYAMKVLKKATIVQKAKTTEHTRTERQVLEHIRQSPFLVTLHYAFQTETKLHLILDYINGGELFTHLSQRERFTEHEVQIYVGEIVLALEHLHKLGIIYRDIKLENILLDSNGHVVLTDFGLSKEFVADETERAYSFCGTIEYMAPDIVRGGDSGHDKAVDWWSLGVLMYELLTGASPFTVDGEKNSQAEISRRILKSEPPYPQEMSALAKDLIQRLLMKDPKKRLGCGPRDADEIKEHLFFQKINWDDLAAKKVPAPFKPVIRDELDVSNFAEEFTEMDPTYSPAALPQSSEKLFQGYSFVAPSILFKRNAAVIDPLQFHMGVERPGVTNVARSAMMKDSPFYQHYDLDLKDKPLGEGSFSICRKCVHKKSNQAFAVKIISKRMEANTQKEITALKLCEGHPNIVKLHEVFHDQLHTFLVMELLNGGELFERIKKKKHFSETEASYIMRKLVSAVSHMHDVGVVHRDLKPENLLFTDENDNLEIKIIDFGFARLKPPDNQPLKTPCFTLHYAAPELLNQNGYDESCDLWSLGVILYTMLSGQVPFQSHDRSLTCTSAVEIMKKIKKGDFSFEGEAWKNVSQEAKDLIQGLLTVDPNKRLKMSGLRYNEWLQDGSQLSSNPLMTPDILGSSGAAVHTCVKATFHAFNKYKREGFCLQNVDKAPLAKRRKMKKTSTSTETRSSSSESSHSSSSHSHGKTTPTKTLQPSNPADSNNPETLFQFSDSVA
Sequence of Endothelin ETA (P25101 21-427): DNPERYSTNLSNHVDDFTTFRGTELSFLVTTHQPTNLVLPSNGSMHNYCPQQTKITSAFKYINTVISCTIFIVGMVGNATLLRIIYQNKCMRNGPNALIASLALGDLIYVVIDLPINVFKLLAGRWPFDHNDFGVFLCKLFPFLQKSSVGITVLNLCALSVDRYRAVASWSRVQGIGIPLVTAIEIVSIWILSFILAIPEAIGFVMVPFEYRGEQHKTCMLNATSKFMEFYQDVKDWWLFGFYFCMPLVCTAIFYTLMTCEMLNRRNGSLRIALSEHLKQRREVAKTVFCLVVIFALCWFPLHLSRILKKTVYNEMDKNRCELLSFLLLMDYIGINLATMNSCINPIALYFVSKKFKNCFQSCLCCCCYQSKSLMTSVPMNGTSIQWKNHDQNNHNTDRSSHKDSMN

Compound `Nc1ccc(-c2ccc3ncc4c(=O)[nH]c(=O)n(-c5cccc(C(F)(F)F)c5)c4c3n2)cn1` [Compound 5, 9-(6-aminopyridin-3-yl)-1-(3-(trifluoromethyl)phenyl)pyrimido[5,4-c][1,5]naphthyridine-2,4(1H,3H)-dione] has an IC50 (AURA) greater than 10000 nM, an IC50 (FES) greater than 10000 nM and an IC50 (JAK2) greater than 10000 nM. The IC50 (MSK1) was greater than 10000 nM, the IC50 (PDK1) was greater than 10000 nM and the inhibition at 10 µM (Adrenergic α2A) was 19%. It also gave an inhibition at 10 µM (Endothelin ETA) of 3% and an inhibition at 10 µM (Opiate δ1 (OP1, DOP)) of 4%.
